The source of these data is patent US20110224204A1, “DI-SUBSTITUTED PHENYL COMPOUNDS” (priority 2008, published 2011).

The target in one data set is Human PDE10A1 (Homo sapiens, UniProt Q9Y233). Kind of data set: hPDE10A1 Enzyme Inhibition. The data set is classed as biochemical. As to conditions: [3H]-cAMP substrate; read-out: hPDE10A1 IC50 Band. As for the experimental part:
hPDE10A1 Enzyme Activity: 50 μl samples of serially diluted Human PDE10A1 enzyme were incubated with 50 μl of [^3H]-cAMP for 20 minutes (at 37° C.). Reactions were carried out in Greiner 96 deep well 1 ml master-block. The enzyme was diluted in 20 mM Tris HCl pH7.4 and [^3H]-cAMP was diluted in 10 mM MgCl2, 40 mM Tris.HCl pH 7.4. The reaction was terminated by denaturing the PDE enzyme (at 70° C.) after which [^3H]-5′-AMP was converted to [^3H]-adenosine by adding 25 μl snake venom nucleotidase and incubating for 10 minutes (at 37° C.). Adenosine, being neutral, was separated from charged cAMP or AMP by the addition of 200 μl Dowex resin. Samples were shaken for 20 minutes then centrifuged for 3 minutes at 2,500 r.p.m. 50 μl of supernatant was removed and added to 200 μl of MicroScint-20 in white plates (Greiner 96-well Optiplate) and shaken for 30 minutes before reading on Perkin Elmer TopCount Scintillation Counter.
hPDE10A1 Enzyme Inhibition: To check inhibition profile 11 μl of serially diluted inhibitor was added to 50 μl of [^3H]-cAMP and 50 ul of diluted Human PDE10A1 and assay was carried out as in the enzyme activity assay. Data was analysed using Prism software (GraphPad Inc).

The conditions of data set [1]: rats; cited from earlier work.

Chain of Human PDE10A1 (Q9Y233 1-779 isoform Q9Y233-1): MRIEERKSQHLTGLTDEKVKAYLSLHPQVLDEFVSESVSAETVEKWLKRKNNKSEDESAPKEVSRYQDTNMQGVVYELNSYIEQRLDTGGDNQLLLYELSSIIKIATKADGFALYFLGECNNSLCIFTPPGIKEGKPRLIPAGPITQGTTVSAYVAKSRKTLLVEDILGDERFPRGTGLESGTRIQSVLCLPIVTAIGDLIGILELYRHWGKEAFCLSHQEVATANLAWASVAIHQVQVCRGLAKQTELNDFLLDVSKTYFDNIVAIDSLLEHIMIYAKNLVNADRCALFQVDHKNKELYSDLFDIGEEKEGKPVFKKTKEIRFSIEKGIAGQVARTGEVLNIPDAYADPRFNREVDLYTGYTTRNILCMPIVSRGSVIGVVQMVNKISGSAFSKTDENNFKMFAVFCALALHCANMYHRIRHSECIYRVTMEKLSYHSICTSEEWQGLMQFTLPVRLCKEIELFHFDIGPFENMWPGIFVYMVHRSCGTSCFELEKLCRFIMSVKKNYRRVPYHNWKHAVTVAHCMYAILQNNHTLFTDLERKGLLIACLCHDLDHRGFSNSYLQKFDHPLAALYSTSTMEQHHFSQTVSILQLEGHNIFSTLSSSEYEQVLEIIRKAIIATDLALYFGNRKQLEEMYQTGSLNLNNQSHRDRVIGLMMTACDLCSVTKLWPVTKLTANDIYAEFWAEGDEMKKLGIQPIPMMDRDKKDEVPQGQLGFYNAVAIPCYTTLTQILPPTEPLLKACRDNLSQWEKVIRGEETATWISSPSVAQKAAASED

As to `c1cc(-c2ccncc2)c(-c2ccc(OCc3ccc4ccccc4n3)cc2)c(N2CCOCC2)c1` [Example 1873, 4-(6-(pyridin-4-yl)-4′-(quinolin-2-ylmethoxy)biphenyl-2-yl)morpholine], the IC50 (as a rule, the concentration at which inhibition is half-maximal) on Human PDE10A1 was above 50 nM.

Take `CN(C)Cc1cccc(-c2ccncc2)c1-c1ccc(OCc2ccc3ccccc3n2)cc1` [Example 1874, N,N-dimethyl-1-(6-(pyridin-4-yl)-4′-(quinolin-2-ylmethoxy)biphenyl-2-yl)methanamine]: at Human PDE10A1, the IC50 is above 50 nM.

On to `CCc1ccccc1-c1ccc(OCc2ccc3ccccc3n2)cc1` [Example 1875, 2-((2′-ethylbiphenyl-4-yloxy)methyl)quinoline], for which the 50% inhibitory concentration (IC50) on Human PDE10A1 is above 50 nM.

Take `Clc1ccc(-c2ccc(OCc3ccc4ccccc4n3)cc2)c(-c2ccncc2)c1` [Example 1876, 2-((4′-Chloro-2′-(pyridin-4-yl)biphenyl-4-yloxy)methyl)quinoline]: the IC50 at Human PDE10A1 was above 50 nM.

`c1ccc(C2CCCCC2)c(-c2ccc(OCc3ccc4ccccc4n3)cc2)c1` [Example 1877, 2-((2′-cyclohexylbiphenyl-4-yloxy)methyl)quinoline]: the 50% inhibitory concentration (IC50) at Human PDE10A1 is above 50 nM.

On to `CCc1ccc(COc2ccc(-c3ccccc3-c3ccncc3)cc2)nc1` [Example 1878, 5-ethyl-2-((2′-(pyridin-4-yl)biphenyl-4-yloxy)methyl)pyridine], for which the IC50 at Human PDE10A1 is above 50 nM.

Regarding `CC(C)Oc1ccccc1-c1ccc(OCc2ccc3ccccc3n2)cc1` [Example 1879, 2-((2′-isopropoxybiphenyl-4-yloxy)methyl)quinoline], the IC50 on Human PDE10A1 was above 50 nM.

As to `Cc1cc(-c2ccncc2)c(-c2ccc(OCc3ccc4ccccc4n3)cc2)cc1C` [Example 1880, 2-((4′,5′-dimethyl-2′-(pyridin-4-yl)biphenyl-4-yloxy)methyl)quinoline], the 50% inhibitory concentration (IC50) at Human PDE10A1 is above 50 nM.

For the compound `Nc1cccc(-c2ccncc2)c1-c1ccc(OCc2ccc3ccccc3n2)cc1` [Example 1881, 6-Pyridin-4-yl-4′-(quinolin-2-ylmethoxy)-biphenyl-2-ylamine], the IC50 on Human PDE10A1 was above 50 nM.

Take `Cc1cccnc1COc1ccc(-c2ccccc2-c2ccncc2)cc1` [Example 1882, 3-methyl-2-((2′-(pyridin-4-yl)biphenyl-4-yloxy)methyl)pyridine]: the IC50 at Human PDE10A1 is above 50 nM.

Regarding `COc1ccccc1-c1ccc(OCc2ccc3ccccc3n2)cc1` [Example 1883, 2-((2′-methoxybiphenyl-4-yloxy)methyl)quinoline], the IC50 at Human PDE10A1 was above 50 nM.

For the compound `Cc1cccc(COc2ccc(-c3ccccc3-c3ccncc3)cc2)n1` [Example 1884, 2-methyl-6-((2′-(pyridin-4-yl)biphenyl-4-yloxy)methyl)pyridine], the IC50 on Human PDE10A1 is above 50 nM.

For `N#Cc1ccc(-c2ccc(OCc3ccc4ccccc4n3)cc2)c(-c2ccncc2)c1` [Example 1885, 2-(Pyridin-4-yl)-4′-(quinolin-2-ylmethoxy)biphenyl-4-carbonitrile], the melting point – broadly, the temperature of the solid-liquid transition – is 190 to 193 °C. The IC50 on Human PDE10A1 is above 50 nM.

For the compound `Cc1cccc(-c2ccc(OCc3ccc4ccccc4n3)cc2)c1-c1ccncc1` [Example 1886, 2-(3′-Methyl-2′-pyridin-4-yl-biphenyl-4-yloxymethyl)-quinoline], the IC50 on Human PDE10A1 is above 50 nM.

Regarding `Cc1cnc(COc2ccc(-c3ccccc3-c3ccncc3)cc2)c(C)c1` [Example 1887, 3,5-dimethyl-2-((2′-(pyridin-4-yl)biphenyl-4-yloxy)methyl)pyridine], on Human PDE10A1, the IC50 is at most 50 nM.

In the case of `Fc1cccc(-c2ccc(OCc3ccc4ccccc4n3)cc2)c1-c1ccncc1` [Example 1946, 2-(3′-Fluoro-2′-pyridin-4-ylbiphenyl-4-yloxymethyl)-quinoline], the IC50 at Human PDE10A1 is above 50 nM.

`Cc1ccnc(COc2ccc(-c3ccccc3-c3ccncc3)cc2)c1` [Example 1947, 4-methyl-2-((2′-(pyridin-4-yl)biphenyl-4-yloxy)methyl)pyridine]: the IC50 at Human PDE10A1 was above 50 nM.

Turning to `COc1ccc(Cc2nccc3cc(OC)c(OC)cc23)cc1OC` [papaverine], in data set [1], the apomorphine induced stereotypies result was “reduces”, the haloperidol induced catalepsy result is listed as “increases” and the “rat brain dopamine levels” value is on record as “reduces”.
